Results as given in paper PMC5766233, “Ternary copper(II) complex: NCI60 screening, toxicity studies, and evaluation of efficacy in xenograft models of nasopharyngeal carcinoma” (PLoS ONE, 2018).

Key:
CYP1A = assay: Cytochrome P450 induction assay in rat primary hepatocytes, CYP1A; type: in vitro ADME; conditions: for Fold induction CYP1A: 3 days; for % of positive control CYP1A: positive control 3-methyl cholanthrene 1.0 μM
From the text: %Activity=(averagearearatiooftreated/averagearearatioofbasalcontrol)x100

CYP 2D6 = molecular target: T1, CYP 2D6 (Homo sapiens, UniProt P10635); assay: CYP450 inhibition assay, pooled human liver microsomes; type: in vitro ADME; conditions: probe dextromethorphan
T1 construct: tissue Sekisui Xeno Tech, LLC; host or cells: pooled human liver microsomes
Experimental: (§1) In the CYP inhibition assay, human liver microsomes were incubated with the Cu(II) complex or reference standard. The inhibitory effects of these compounds were investigated against the major CYP isoforms namely 1A2, 2C9, 2C19, 2D6, 2B6, 2C8 and 3A4 with their respective isoform probe substrates in one reaction mixture (pooled probe substrate format using LC-MS/MS).
(§2) Pooled human liver microsomes (Sekisui Xeno Tech, LLC., Kansas City, KS, USA) were incubated with different concentrations of Cu(II) complex or reference standards in buffer containing 0.1% DMSO for 10 min at 37°C and the residual enzyme activity was measured using pooled probe substrates method by pooled LC-MS/MS. Briefly, incubation mixtures were prepared in a total volume of 200 μL with final component concentrations as follows: 0.1 M potassium phosphate buffer (pH 7.4), 1.5 mM NADPH, and 0.25 mg/ml HLM. […] After 20 min of incubation, the reactions were terminated by addition of 200 μL ice-cold acetonitrile (Rankem, Avantor Performance Materials India Limited, Andhra Pradesh, India) containing telmisartan and carbamazepine as internal standards (all probe substrates and standards were from Sigma Aldrich). Each reaction mixture was centrifuged at 3,500 rpm for 5 min and the supernatant was subjected to LC-MS/MS analysis. The percent inhibition was calculated using the following equation: %Inhibition=100‑[(activityintestwells/activityinbasalcontrolwells)×100]

CYP 1A2 = molecular target: T2, CYP 1A2 (Homo sapiens, UniProt P05177); assay: as above; type: in vitro ADME; conditions: probe phenacetin
T2 construct: tissue Sekisui Xeno Tech, LLC; host or cells: pooled human liver microsomes
T2 sequence (P05177 1-516): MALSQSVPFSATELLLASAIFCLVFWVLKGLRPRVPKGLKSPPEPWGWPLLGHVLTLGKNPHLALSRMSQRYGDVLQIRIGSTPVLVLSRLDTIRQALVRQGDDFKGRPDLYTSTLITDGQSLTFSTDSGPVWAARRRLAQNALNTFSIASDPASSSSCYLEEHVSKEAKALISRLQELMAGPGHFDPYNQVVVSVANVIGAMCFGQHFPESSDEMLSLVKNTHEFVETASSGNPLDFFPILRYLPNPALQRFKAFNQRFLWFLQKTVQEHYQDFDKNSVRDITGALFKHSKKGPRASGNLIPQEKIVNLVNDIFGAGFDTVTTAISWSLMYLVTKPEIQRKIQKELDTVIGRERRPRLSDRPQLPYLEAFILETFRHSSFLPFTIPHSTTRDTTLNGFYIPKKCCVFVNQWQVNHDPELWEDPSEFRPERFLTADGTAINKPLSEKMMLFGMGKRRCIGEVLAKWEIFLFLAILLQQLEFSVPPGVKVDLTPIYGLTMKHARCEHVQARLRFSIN
Experimental: as §1, §2

CYP 3A4 = molecular target: T3, CYP 3A4 (Homo sapiens, UniProt P08684); assay: as above; type: in vitro ADME; conditions: probe midazolam
T3 construct: tissue Sekisui Xeno Tech, LLC; host or cells: pooled human liver microsomes
Experimental: as §1, §2

[1] = tested on: C666-1-GFP-Luc2 xenograft; assay: In vivo efficacy in C666-1-GFP-Luc2 xenograft model; design: species or system NOD scid gamma female mice
From the text: Next, we assessed the anticancer efficacy of the Cu(II) complex on another NPC xenograft, the EBV positive C666-1-GFP-Luc2 cells. […] Two mice in this group completed the 14 doses but died on the last day of the experiment while one mouse died on day 13 after receiving 12 doses of the Cu(II) complex. […] Harvested major organs sections stained with hematoxylin and eosin dyes were also examined. […] Therefore, no toxicity was found in mice carrying nasopharyngeal C666-1-GFP-Luc2 when treated with Cu(II) complexes at the doses of 4 mg/kg and 5 mg/kg. The underlying cause of death, presumed to be due to toxicity at the dose of 6 mg/kg, could not be ascertained conclusively because although the liver size was smaller in the treated group, the histopathology of the liver appeared normal and no other abnormalities were detected other than lower spleen size.
2.0 x 10^6 HK1 or C666-1-GFP-Luc2 cells in 100 μl RPMI media mixed with matrigel (BD Matrigel Basement Membrane Matrix; BD Biosciences, Bedford, MA, USA) was inoculated subcutaneously into the right lower flank of the NSG mice. Tumor growth was monitored and measured every other day using a digital caliper (Mitutoyo America Corporation, Aurora, Illinois, USA) until they reached 100–250 mm^3. Then, the mice were randomly assigned into treatment groups. The mice bearing HK1 xenograft tumor were divided into 3 treatment groups and a control (normal saline) group. The first batch received normal saline (one injection daily for 5 days), 6 mg/kg (one injection daily for 5 days) and 8 mg/kg (one injection every other day for 3 doses) of Cu(II) complex while the second batch received normal saline (one injection daily for 4 days), 4 mg/kg (one injection daily for 4 days), 6 mg/kg (one injection daily for 4 days) and 8 mg/kg (one injection every other day for 2 doses) of Cu(II) complex via intraperitoneal route.
Subsequently, for the efficacy assay using mice bearing C666-1-GFP-Luc2 cells, 3 sets of control group versus experimental group were tested in three independent experiments. Mice were randomly assigned into 4, 5 or 6 mg/kg Cu(II) complex and their control groups respectively. Injections were given once daily for 12 to 18 days. Body weight change, food intake, signs of toxicity/morbidity as well as mortality were observed and recorded daily for the duration of the entire experiment. Tumor volumes were determined using a caliper thrice weekly. Tumor volumes were calculated according to the following formula: Tumor volume (mm^3) = (length [mm] X width^2 [mm^2])/2. At the end point of the studies, mice were placed under anesthesia for blood collection via submandibular and cardiac puncture before they were sacrificed for histopathological investigations. Tumors were harvested, imaged, weighed and fixed in formalin.
All H&E-stained tissue section slides were examined under Nikon Eclipse Ni microscope (Nikon Instruments Inc., New York, USA) and microscopic images were taken using 20x and 40x objectives. For H&E tumor section slides, the percentage of tumor necrosis was determined qualitatively using microscope by the histopathologist in order to estimate the percentage of necrotic area induced by the Cu(II) complex in the tumors. For determination of femoral bone marrow suppression, low power (10x magnification) objective was used to scan the slides while 100x magnification to assess the degree of cellularity and amount of fat present.
Firstly, 4 ml of rhodamine stock solution was combined with 46 ml of acetate buffer solution in order to prepare a working rhodamine solution. Tissue sections were prepared, deparaffinized and hydrated in distilled water. Then, a loosely capped staining jar containing working rhodamine was warmed in the microwave oven (Panasonic Corporation, Osaka, Japan). The slide with tissue section was placed in warmed working rhodamine solution and reheated using microwave oven. […]

T3 sequence (P08684 whole entry): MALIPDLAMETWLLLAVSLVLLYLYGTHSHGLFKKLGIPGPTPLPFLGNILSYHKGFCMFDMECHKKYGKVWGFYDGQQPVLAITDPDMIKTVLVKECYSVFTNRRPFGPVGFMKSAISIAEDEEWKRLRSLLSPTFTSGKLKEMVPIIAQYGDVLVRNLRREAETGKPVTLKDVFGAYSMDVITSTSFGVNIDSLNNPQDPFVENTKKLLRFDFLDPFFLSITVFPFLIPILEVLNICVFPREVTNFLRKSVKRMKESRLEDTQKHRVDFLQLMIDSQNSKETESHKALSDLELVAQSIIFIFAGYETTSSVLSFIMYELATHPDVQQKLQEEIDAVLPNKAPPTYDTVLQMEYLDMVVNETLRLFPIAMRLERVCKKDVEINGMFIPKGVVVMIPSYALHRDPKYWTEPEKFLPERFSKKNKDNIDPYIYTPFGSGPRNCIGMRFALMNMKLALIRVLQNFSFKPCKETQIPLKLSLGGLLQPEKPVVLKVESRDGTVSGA
T1 sequence (P10635 whole entry): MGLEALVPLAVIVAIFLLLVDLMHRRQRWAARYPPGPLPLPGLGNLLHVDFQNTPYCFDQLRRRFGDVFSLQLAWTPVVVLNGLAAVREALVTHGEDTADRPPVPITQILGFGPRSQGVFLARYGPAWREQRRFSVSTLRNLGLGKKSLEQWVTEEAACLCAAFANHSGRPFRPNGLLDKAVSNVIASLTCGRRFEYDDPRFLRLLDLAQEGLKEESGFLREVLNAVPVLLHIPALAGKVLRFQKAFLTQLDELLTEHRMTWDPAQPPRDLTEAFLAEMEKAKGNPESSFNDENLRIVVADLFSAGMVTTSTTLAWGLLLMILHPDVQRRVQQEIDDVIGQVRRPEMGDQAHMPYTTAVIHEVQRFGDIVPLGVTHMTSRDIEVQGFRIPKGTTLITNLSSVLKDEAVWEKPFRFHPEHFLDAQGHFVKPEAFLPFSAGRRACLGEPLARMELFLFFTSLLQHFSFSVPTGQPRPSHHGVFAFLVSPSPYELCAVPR

For CC(C)(N)C(=O)[O-].O.O=[N+]([O-])[O-].[Cu+2].c1cnc2c(c1)ccc1cccnc12 [Cu(II) complex, [Cu(phen)(C-dmg)(H2O)]NO3], the “Fold induction CYP1A” value (CYP1A; 0.1 μM) was 1.1, the “% of positive control CYP1A” value (CYP1A; 0.1 μM) was 10.1% and the “Fold induction CYP1A” value (CYP1A; 0.3 μM) was 1.4. For the same compound, the “% of positive control CYP1A” value (CYP1A; 0.3 μM) was 13.0%, the “Fold induction CYP1A” value (CYP1A; 1.0 μM) was 0.8 and the “% of positive control CYP1A” value (CYP1A; 1.0 μM) was 7.4%. For the same compound, the “induction, % of positive control, CYP1A” value (CYP1A; 0.1-1.0 μM) was less than 13%, the IC50 (CYP 2D6) was 10.2 µM and the IC50 (CYP 1A2) was 8.01 µM. For the same compound, the IC50 (CYP 3A4) was 5.46 µM, the tumor growth ([1]; 4 mg/kg ip daily, 18 days) was “not effective” and the “survival throughout the experiment” value ([1]; 6 mg/kg ip daily) was “only one mouse out of four”. For the same compound, the “Copper staining of liver sections” value ([1]; 4, 5 and 6 mg/kg) was “negative for copper deposits”, the body weight ([1]; 4, 5 and 6 mg/kg) was “little influence” and the “weight of vital organs” value ([1]; 4, 5 and 6 mg/kg, except for liver in the 6 mg/kg group) was “no significant differences”. For the same compound, the tolerability ([1]; 4 and 5 mg/kg dose regimens) was “well tolerated”, the tumor growth ([1]; 5 and 6 mg/kg ip daily) was “significant tumor growth inhibition” and the “Histopathological examination of heart, liver, kidney and lung” value ([1]; all the groups) was “did not show any obvious abnormal changes”. For the same compound, the “necrotic area in the tumor xenografts” value ([1]; treated groups vs control groups, concentration dependent) was “higher percentage of necrotic area”.
